Measured values as given in patent publication US8188308B2 (Kyowa Hakko Bio Co., Ltd., priority 2006, dated 2012).
Several values for one entry are separate records, joined by “and”; a condition that tells them apart may be missing. Equal entries are not always repeated.

How the values were obtained:
[1] = 12 g crystals in 200 ml ionized water, 37° C., 120 rpm, time to complete dissolution
Method: 12 g of each of the crystals was put in to 200 ml of the ionized water maintained at a temperature of 37° C., and the time from injection to complete dissolution of the crystals when agitated at 120 rpm was measured.

[2] = glutathione crystals
Method: The crystals were observed and photographed using a VH-8000 digital microscope (Keyence Corporation). The width of approximately 300 crystals was measured and calculations performed.

[3] = glutathione crystals; volume median diameter
Method: (2) Average Particle Diameter
This is synonymous with volume median diameter, and it was measured using a laser diffraction and scattering particle diameter analyzer, the LMS-24 SK Laser Micron Sizer (Seishin Enterprise Co. Ltd.) and expressed as a cumulative 50% volume particle diameter.

| Structure (SMILES) | Dissolution time [1] | Average width [2] | Average particle diameter [3] |
| --- | --- | --- | --- |
| N[C@@H](CCC(=O)N[C@@H](CS)C(=O)NCC(=O)O)C(=O)O [Commercial product A] | 124 s | 3 μm | 9 μm |
| N[C@@H](CCC(=O)N[C@@H](CS)C(=O)NCC(=O)O)C(=O)O [Example 1, gamma-L-glutamyl-L-cysteinyl glycine] |  | 25 μm | 52 μm |
| N[C@@H](CCC(=O)N[C@@H](CS)C(=O)NCC(=O)O)C(=O)O [Example 2, gamma-L-glutamyl-L-cysteinyl glycine] |  | 14 μm and 7 μm |  |
| N[C@@H](CCC(=O)N[C@@H](CS)C(=O)NCC(=O)O)C(=O)O [commercial product B] |  | 3 μm |  |
| N[C@@H](CCC(=O)N[C@@H](CS)C(=O)NCC(=O)O)C(=O)O [commercial product C] |  | 3 μm |  |
